Where two headings read alike, the source gives them in different places.
Legend:
[1] = system: stress granules and P-bodies; details: literature, cited from earlier work
[2] = system: P-bodies (EDC4 foci) in HEK293T cells; assay: Immunofluorescence phenotypic screen for P-bodies (α-EDC4) in glucose-deprived HEK293T cells; assay type: cell-based
Procedure: (§1) SuTEx compound treatments. Prior to treatments, cells were washed twice with warm phosphate-buffered saline (PBS) and exchanged with serum-free DMEM (supplemented with 1% L-glutamine) for at least 30 minutes at 37° C. with 5% CO2. Compounds were then added as 1000×DMSO stocks (10 μL for 10 cm dishes and 3 μL for 6-well dishes), plates were mixed gently, and cells were incubated for two hours. All compounds were thoroughly vortexed and sonicated for five minutes prior to addition to ensure complete solvation. For microscopy experiments, cultures were seeded at 150,000 cells in 3 mL of DMEM in 6-well THERMO SCIENTIFIC™ BIOLITE™ brand microwell plates (Catalog No. 12556004; Thermo Fisher Scientific Inc., Waltham, Massachusetts. United States of America). For collection, media was aspirated, and cells were washed once with cold PBS before scraping from plates. Cells were centrifuged at 500×g at 4° C. for 5 minutes and supernatant was removed. Cell pellets were resuspended in cold PBS (1 mL) and centrifuged at 1,400×g at 4° C. for 3 minutes. Supernatant was again removed, and pellets were then snap-frozen in liquid nitrogen and stored at −80° C. until needed.
(§2) Immunofluorescence. Immunofluorescence (IF) of HEK293T cells was performed as previously described in Ciancone et al., 2022. HeLa cells were seeded at 9.0×10^4 in a 24-well plate with 12-mm glass coverslips. The next day, the cells were treated with 25 μM SuTEx probe for 2 hours in DMEM medium without FBS. The cells were then treated with 75 μM NaAsO2 for 30 minutes and fixed with 3% paraformaldehyde in PBS for 15 minutes at room temperature (RT) and washed with PBS twice. The fixed cells were permeabilized with PBST (0.1% Triton X-100) for 15 minutes at room temperature and blocked with 5% goat serum in PBST for 30 minutes at RT. The cells were incubated with anti-G3BP1 antibody H-10 (Catalog No. sc-365338 at 1:200 dilution; Santa Cruz Biotechnology, Inc., Dallas, Texas, United States of America) for 2 hours at RT and washed with PBST (0.1% Tween-20) for 5 minutes three times. Next, cells were incubated with goat anti-mouse Alexa 594 antibody (Catalog No. 115-585-003 at 1:800 dilution; Jackson ImmunoResearch, West Grove, Pennsylvania, United States of America) for 30 minutes at RT. The cells were washed twice with PBST, stained with Hoechst 33342 (Catalog No. H3570 at […]; Thermo Fischer Scientific) in PBST for 5 minutes, and washed with PBS twice for 5 minutes. The coverslips were mounted in PROLONG™ Gold AntiFade Mountant (Catalog No. P36930, Thermo Fisher Scientific) and imaged using NIS Elements AR software and a Nikon Eclipse Ti microscope equipped with a ×100 objective and CMOS camera. […] A CellProfiler pipeline was developed to quantify the number of stress granules under each condition. Briefly, cells were recognized as blue^+ (nuclei) red^+ (G3BP1) objects, and the red^+ granules that meet the shape and size threshold were identified and counted. Cells on the border of linages were excluded from the analysis for more accurate quantification.
Data Analysis—Microscopy. All slides were blinded for imaging. Leica SP5X images were analyzed using Fiji (ImageJ). Custom macros were written for analysis and can be obtained upon request. To elaborate, images were split into channels based on the different laser wavelengths measured. Image stacks were then combined using ‘Z-Project’ with an average intensity parameter and a threshold was applied to exclude noise based on the negative control (no EDC4 antibody). The ‘Analyze Particles’ function was used with relevant size and circularity constraints (0.85-1.00) to count the number of foci, with total PBs having a diameter of >150 nm, and large PBs>450 nm. The number of foci was normalized to the number of cells (defined by a DAPI stain count) in each linage, and the number of foci per cell was averaged across technical replicates. Every sample had at least two technical replicates and two independent biological replicates. […]

[3] = system: stress granules (G3BP1 foci) in HeLa cells; assay: Immunofluorescence phenotypic screen for stress granules (α-G3BP1) in stressed HeLa cells; assay type: cell-based; details: 25 μM, 2 h
Procedure: as §1, §2
We used immunofluorescence (IF) detection for phenotypic screening of SuTEx compound activity on stress-induced PB and SG levels in cells (FIG. 1B). PBs were induced through glucose deprivation of HEK293T cells and detected by immunofluorescence with anti-enhancer of mRNA-decapping protein 4 (EDC4) as previously described (Kedersha & Anderson, 2007; Ciancone et al., 2022) (~4 vs 2 PBs/cell in −glucose and +glucose conditions, respectively; FIG. 8). EDC4 is an established PB marker for mammalian cells and is important for PB formation (Kedersha & Anderson, 2007; Luo et al., 2018). SGs were induced in HeLa cells by [COMPOUND LEFT OUT] treatments and detected by fluorescent staining with anti-Ras GTPase-activating protein-binding protein 1 (G3BP1) antibody (75 μM [COMPOUND LEFT OUT], 30 min; FIG. 9). G3BP1 foci have been used in previous IF studies to identify SGs in cells (Kedersha & Anderson, 2007). […]

eIF4A = details: literature; cited from earlier work
[4] = glucose-deprived HEK293T cells, 25 μM, 2 h

Row | SMILES | effect on RNP granules (in words) [1] | inhibition of eIF4A (in words) (eIF4A) | further results
1 | CC[C@]1(O)C[C@@H]2CN(CCc3c([nH]c4ccccc34)[C@@](C(=O)OC)(c3cc4c(cc3OC)N(C)[C@H]3[C@@](O)(C(=O)OC)[C@H](OC(C)=O)[C@]5(CC)C=CCN6CC[C@]43[C@@H]65)C2)C1 [vinblastine] | form PBs |  | 
2 | O=S(=O)(c1ccc(F)cc1)n1cnc(-c2cccnc2)n1 [JWB180, 3-(1-((4-Fluorophenyl)sulfonyl)-1H-1,2,4-triazol-3-yl)pyridine] |  |  | effect on PBs (in words) [2, 4]: negligible effects; effect on SGs (in words) [3]: negligible effects
3 | C[C@@H]1C[C@@H]([C@H](O)CC2CC(=O)NC(=O)C2)C(=O)[C@@H](C)C1 [cycloheximide] |  |  | toxicity (in words) [1]: significant toxicity
4 | CC(C)C[C@H](NC(=O)[C@H](Cc1ccccc1)NC(=O)c1cnccn1)B(O)O [bortezomib] | formation of pro-survival SGs in solid tumors |  | 
5 | CC(/C=C/C(C)=C/[C@@H]1Cc2nc(cs2)[C@@H](C)C[C@@H](N)CC(=O)O[C@@H](C)C/C(C)=C/C=C\C(=O)O1)=C\CN(C)C [pateamine A] | induce SGs in an eIF2a-independent manner | inhibit eIF4A | 
6 | COC(=O)[C@H]1[C@@H](O)[C@@]2(O)c3c(OC)cc(O[C@@H]4O[C@@H]([C@H](O)CO)CO[C@H]4OC)cc3O[C@@]2(c2ccc(OC)cc2)[C@@H]1c1ccccc1 [silvestrol] |  | inhibit eIF4A | 
7 | O=S(=O)(c1cccnc1)n1cc(-c2ccccc2F)nn1 [AMC-001, 3-((4-(2-Fluorophenyl)-1H-1,2,3-triazol-1-yl)sulfonyl)pyridine] |  |  | fold induction at 25 µM ([2]; Homo sapiens, HEK-293T, glucose-deprived HEK293T cells, pretreatment, 25 μM, 2 h, read-out: increase in PBs/cells): > 2; effect on PBs (in words) [2, 4]: statistically significant increase in PBs per glucose-deprived cell; increase in PBs ([2]; glucose-deprived cells, pretreatment): > 200%; effect on SGs (in words) [3]: negligible effects on the number of SGs per cell
8 | COc1ccc([C@@]23Oc4cc(OC)cc(OC)c4[C@]2(O)[C@H](O)[C@H](C(=O)N(C)C)[C@H]3c2ccccc2)cc1 [rocaglamide A] |  | inhibit eIF4A | 
9 | O=c1[nH]cc(F)c(=O)[nH]1 [5-fluorouracil] | formation of pro-survival SGs in solid tumors |  | 
10 | C[C@H]1C[C@@]2(O[C@H]3C[C@H]4[C@@H]5CC[C@H]6C[C@H](O)CC[C@]6(C)[C@H]5[C@@H](O)C[C@]4(C)[C@H]3[C@@]2(C)O)OC1(C)C [hippuristanol] | induce SGs in an eIF2a-independent manner | inhibit eIF4A | 
11 | CC[C@H]1CN2CCc3cc(OC)c(OC)cc3[C@@H]2C[C@@H]1C[C@H]1NCCc2cc(OC)c(OC)cc21 [emetine] | disassemble SGs and stress-induced PBs |  | effect on PB formation (in words) ([2]; emetine 50 nM, 2 h, vs vehicle (water), p<0.001): inhibited PB formation; toxicity (in words) [1]: significant toxicity; effect on RNP granules (in words) ([1]; listed as Emetine): inhibit and even dissociate PBs
